According to PubChem BioAssay AID1996:
Values after ≈ are worked out from the molar mass of the structure shown.

Details: buffer; pH 7.4; 200.0 µM

Row | SMILES | solubility kinetic
1 | Cc1cccc(C)c1N1CCN(C(=O)N2CCOCC2)CC1 | > 45.5 µg/mL
2 | O=C(NCCCc1ccccc1)c1cccc(Br)c1 | 19 µg/mL (≈ 59.7 µM)
3 | CC(C)(C)NS(=O)(=O)c1ccc(/C=C/C(=O)O)cc1 | > 42.5 µg/mL
4 | Cc1ccc(NC(=O)N2CCN(C(=O)C3CCCO3)CC2)cc1 (stereo unspecified) | > 47.6 µg/mL
5 | O=C(CN1CC=C(c2ccccc2)CC1)NC(=O)NC1CCCCC1 | 22.1 µg/mL (≈ 64.7 µM)
6 | Cc1ccccc1OCC(=O)OC(C)C(=O)NC1CCCC1 (stereo unspecified) | > 45.8 µg/mL
7 | CC1CN(C/C(=N\O)C23CC4CC(CC(C4)C2)C3)CC(C)O1 (stereo unspecified) | > 46 µg/mL
8 | COCCCn1c(=NC(C)=O)c(C#N)cc2c(=O)n3cccc(C)c3nc21 | 52.3 µg/mL (≈ 143 µM)
9 | O=C1CSC(c2ccc([N+](=O)[O-])cc2)N1c1ccccc1 (stereo unspecified) | 42 µg/mL (≈ 140 µM)
10 | COc1ccc(S(=O)(=O)NCCNC(=O)N2CCOCC2)cc1 | > 51.5 µg/mL
11 | O=C1/C(=C/c2ccccc2)SC(=S)N1C1CCS(=O)(=O)C1 (stereo unspecified) | 0.9 µg/mL (≈ 2.65 µM)
12 | CC(NC(=S)NC1CCC(C(C)(C)C)CC1)c1ccccc1 (stereo unspecified) | < 0.3 µg/mL
13 | Cc1ccc(CNC(=O)Nc2ccc(F)cc2F)n1C | > 41.9 µg/mL
14 | NC(=NC(=O)c1ccc(OC(F)(F)F)cc1)c1ccc(C(F)(F)F)cn1 | < 0.3 µg/mL
15 | CN(Cc1ccccc1)C(=O)c1cc(=O)[nH]c2ccccc12 | > 43.9 µg/mL
16 | Cc1ccc(C(=O)NCC(=O)NCCCc2ccccc2)s1 | 24.9 µg/mL (≈ 78.7 µM)
17 | Cc1cc(C)c2sc(N)nc2c1 | 25.1 µg/mL (≈ 141 µM)
18 | CCCC(C)NC(=O)Cc1ccccc1 (stereo unspecified) | 30 µg/mL (≈ 146 µM)
19 | CCOC(=O)CC(c1ccc(N)cc1)n1c(C)ccc1C (stereo unspecified) | 20.8 µg/mL (≈ 72.6 µM)
20 | O=C(NNC(=O)c1ccccc1C(=O)O)c1cc2ccccc2o1 | > 48.6 µg/mL
21 | CCC1Oc2ccc(C)cc2N(CC(=O)NCC2CCCO2)C1=O (stereo unspecified) | 43.6 µg/mL (≈ 131 µM)
22 | O=C(NC1CCCC(C(F)(F)F)C1)c1ccc([N+](=O)[O-])o1 (stereo unspecified) | > 45.9 µg/mL
23 | CCN1CCN(Cc2cc3c(cc2[N+](=O)[O-])OCO3)CC1 | 41.1 µg/mL (≈ 140 µM)
24 | C=CCC(O)(CC=C)C(C)N.Cl (stereo unspecified) | > 28.8 µg/mL
25 | COc1ccc(C=O)cc1CSc1ccccn1 | 38.2 µg/mL (≈ 147 µM)

Row | SMILES | solubility kinetic
26 | CCOC(=O)c1cnc(SC)nc1NCCOC | > 40.7 µg/mL
27 | O=C(c1ccccc1)c1cccn1CC(=O)N1CCc2ccccc2C1 | 41.4 µg/mL (≈ 120 µM)
28 | COc1ccc(NC(=O)Nc2ccccc2SC)c(OC)c1 | 0.7 µg/mL (≈ 2.2 µM)
29 | CC1c2cccn2CCN1S(=O)(=O)c1ccccc1 (stereo unspecified) | 40.3 µg/mL (≈ 146 µM)
30 | CC(=O)Nc1cccc(OCCCNC(=O)c2cccc3ccccc23)c1 | 46.8 µg/mL (≈ 129 µM)
31 | Cn1c(O)c(C(=Nc2ccc(F)cc2)c2ccccc2)c(=O)n(C)c1=O | 7.4 µg/mL (≈ 20.9 µM)
32 | S=C(NCc1ccccc1)NC1CCCCC1 | > 37.3 µg/mL
33 | COc1cc(NC(=S)N(C)C)c(OC)cc1Cl | > 41.2 µg/mL
34 | Clc1cccc(CN2CCCCCC2)c1Cl | 4.8 µg/mL (≈ 18.6 µM)
35 | CCOP(=O)(OCC)C(Nc1ccccc1)c1cccnc1 (stereo unspecified) | > 48 µg/mL
36 | COc1ccc(CCNCc2sccc2C)cc1.Cl | > 44.7 µg/mL
37 | O=C(C1CCN(S(=O)(=O)c2c(Cl)cccc2Cl)CC1)N1CCCC1 | > 58.7 µg/mL
38 | CC(=O)c1cccc(NC(=O)COC(=O)CCNS(=O)(=O)c2ccccc2)c1 | > 60.7 µg/mL
39 | Cc1cc(C(=O)NCc2cc(C(=O)O)co2)co1 | > 37.4 µg/mL
40 | Cc1ccc(C)c(OCCNc2ccc([N+](=O)[O-])cn2)c1 | 0.4 µg/mL (≈ 1.39 µM)
41 | N#CCc1ccc(OC(=O)c2cccnc2)cc1 | > 35.7 µg/mL
42 | Cc1ccccc1C1NC(c2ccccc2C)C(C)C(=O)C1C (stereo unspecified) | 7.7 µg/mL (≈ 25 µM)
43 | O=C(C(=O)N1CCOCC1)c1cn(Cc2ccccc2)c2ccccc12 | 6.4 µg/mL (≈ 18.4 µM)
44 | N#CC(c1ccccc1)N1CCOCC1 (stereo unspecified) | 20.7 µg/mL (≈ 102 µM)
45 | Cc1ccc(S(=O)(=O)CCC(=O)OC(C)c2nnc(-c3cccs3)o2)cc1 (stereo unspecified) | > 61 µg/mL
46 | O=C(NCc1ccc(F)cc1)C(c1ccccc1)c1ccccc1 | < 0.7 µg/mL
47 | O=C1NC(=O)N(Cc2ccccc2)C1=O | > 30.6 µg/mL
48 | O=C(Nc1ccc([N+](=O)[O-])cc1)Nc1cnccn1 | 2.9 µg/mL (≈ 11.2 µM)
49 | CCOC(=O)CNc1nc(Cl)nc(Nc2ccc(Cl)cc2)n1 | < 0.1 µg/mL
50 | COc1ccc(C(C)NS(=O)(=O)Cc2ccccc2)cc1 (stereo unspecified) | 43 µg/mL (≈ 141 µM)

Row | SMILES | solubility kinetic
51 | Fc1ccc(C2CCCN2Cc2nc(CC3CC3)no2)cc1 (stereo unspecified) | 28.6 µg/mL (≈ 94.9 µM)
52 | Cn1c(=O)[nH]c2ncccc21 | > 22.4 µg/mL
53 | CCCCC(=O)Nc1cccc(-c2nc3ncccc3o2)c1C | > 46.4 µg/mL
54 | O=C(NC1CCCN(CCc2ccccc2)C1)c1c[nH]c2ccccc12 (stereo unspecified) | 49.3 µg/mL (≈ 142 µM)
55 | COC(=O)C1CCN(S(=O)(=O)Cc2ccccc2Cl)CC1 | > 49.8 µg/mL
56 | O=C(COc1cccc(Cl)c1)NCc1ccccc1 | > 41.4 µg/mL
57 | COc1cc(NC(C)=O)ccc1NC(=O)c1cc2ccccc2o1 | < 0.3 µg/mL
58 | Cc1cc(C(C)(C)C)cc(S(=O)(=O)Nc2ccc(C(=O)O)cc2)c1C | 40.8 µg/mL (≈ 113 µM)
59 | O=C1Nc2ccc(Cl)cc2C(C#CC2CC2)(C(F)(F)F)O1 (stereo unspecified) | 19.6 µg/mL (≈ 62.1 µM)
60 | O=C(c1ccccc1)N1CCN(C(=O)C2CC2)CC1 | 38.2 µg/mL (≈ 148 µM)
61 | Cc1ccc2[nH]c3c(Cl)ncnc3c2c1 | 13.3 µg/mL (≈ 61.1 µM)
62 | CC(C)CCn1cnc2c(oc3nc4c(cc32)CCCC4)c1=O | 43 µg/mL (≈ 138 µM)
63 | Cc1cc(C)c(NC(=O)CSCc2c(C)noc2C)c(C)c1 | 28.1 µg/mL (≈ 88.2 µM)
64 | O=Cc1ccc(OCC(=O)NCC2CCCO2)cc1 (stereo unspecified) | 36.4 µg/mL (≈ 138 µM)
65 | O=C(NC1CCS(=O)(=O)C1)c1ccccc1Cl (stereo unspecified) | > 41.1 µg/mL
66 | CCCCN(Cc1cc2cc(C)ccc2[nH]c1=O)C(=O)c1ccccn1 | > 52.4 µg/mL
67 | O=[N+]([O-])c1ccc(-c2ccc(/C=N/O)o2)cc1 | 8 µg/mL (≈ 34.5 µM)
68 | O=C(O)CCN1CCc2ccccc2C1c1ccncc1 (stereo unspecified) | > 42.4 µg/mL
69 | Cc1cnc(NC(=O)[C@H](C)N2C(=O)C3CCCCC3C2=O)s1 (stereo partly specified) | > 48.2 µg/mL
70 | CCOc1ccc(N2C(=O)C(Cl)=C(N3CCOCC3)C2=O)cc1 | > 50.5 µg/mL
71 | CCCCN1CNC(=S)N(CCc2ccc(OCC)c(OCC)c2)C1 | 12.6 µg/mL (≈ 34.5 µM)
72 | Cc1ccccc1C(=O)NCC(=O)c1ccccc1 | > 38 µg/mL
73 | CCCCc1nc(NCCO)c(C#N)c2c1CCCC2 | 3.6 µg/mL (≈ 13.2 µM)
74 | COc1ccc(NC(=S)Nc2ccccc2Cl)cn1 | 38.8 µg/mL (≈ 132 µM)
75 | CC1(C)CN(C(Cc2ccccc2)C(N)=O)C1=O (stereo unspecified) | > 36.9 µg/mL

Row | SMILES | solubility kinetic
76 | CCN1CCN(c2ccc(NC(=O)c3ccc(Br)o3)cc2)CC1 | > 56.7 µg/mL
77 | Cc1nnc(NC(=O)CSc2nnc(C)c(=O)n2N)s1 | > 47 µg/mL
78 | COc1ccc(OC)c(NC(=O)COC(=O)[C@H](Cc2ccccc2)NC(=O)c2ccco2)c1 | 5.7 µg/mL (≈ 12.6 µM)
79 | COc1ccc(C/C(N)=N/OC(=O)CCc2ccccc2)cc1 | 7.7 µg/mL (≈ 24.7 µM)
80 | O=C(c1cccc([N+](=O)[O-])c1)N1CCN(C/C=C/c2ccccc2)CC1 | 52 µg/mL (≈ 148 µM)
81 | COc1ccc(C(CNS(=O)(=O)c2cccc(F)c2)N2CCCC2)cc1.Cl (stereo unspecified) | > 62.2 µg/mL
82 | O=C(CCn1c(=S)oc2ccccc21)Nc1cccc(O)c1 | 8.6 µg/mL (≈ 27.4 µM)
83 | CC(C)(C)c1ccc(S(=O)(=O)NCc2ccccn2)cc1 | 44.1 µg/mL (≈ 145 µM)
84 | O=C(COC(=O)COc1cccc(F)c1)Nc1nc2ccccc2s1 | 45.1 µg/mL (≈ 125 µM)
85 | Cc1cc(NC(=O)c2ccc([N+](=O)[O-])cc2)n(C)n1 | > 39 µg/mL
86 | O=C(O)C1C2CCC(O2)C1C(=O)Nc1ccccc1Br (stereo unspecified) | > 51 µg/mL
87 | O=C(CN1CCN(c2ccccc2)CC1)Nc1ccncc1 | 38.6 µg/mL (≈ 130 µM)
88 | O=C1NC(=O)/C(=C/c2cc3c(cc2Br)OCO3)S1 | > 49.2 µg/mL
89 | COc1ccc(C(=O)O)cc1S(=O)(=O)NCc1ccncc1 | > 48.4 µg/mL
90 | CC1(c2cccc(Br)c2)NC(=O)N(CC(=O)c2ccc3c(c2)OCCO3)C1=O (stereo unspecified) | 12.5 µg/mL (≈ 28.1 µM)
91 | O=C(O)C1CCC(CNCc2ccncc2)CC1 (stereo unspecified) | 36.7 µg/mL (≈ 148 µM)
92 | Cc1ccccc1NC(=O)NCCCN1CCN(C)CC1 | > 43.6 µg/mL
93 | Cc1ccc(NC(=O)COC(=O)Cc2ccccc2)cc1S(=O)(=O)N1CCOCC1 | 58.1 µg/mL (≈ 134 µM)
94 | Cc1cc(C)c(NC(=O)CCCSc2nnc(N)s2)c(C)c1 | > 50.5 µg/mL
95 | Cc1ccc(NC(=O)c2ccc(OCc3c(C)noc3C)cc2)cc1C | 6.7 µg/mL (≈ 19.1 µM)
96 | O=C(NCc1cccnc1)Nc1ccccc1C(F)(F)F | > 44.3 µg/mL
97 | Cc1ccc(C)c(OCC(=O)N2CCc3ccccc3C2)c1 | 22.3 µg/mL (≈ 75.5 µM)
98 | CCCCNc1c(N)n(CC(C)C)c(=O)[nH]c1=O | 35.9 µg/mL (≈ 141 µM)
99 | Cc1ccc2[nH]c(C(=O)N3CCN(C=O)CC3)cc2c1 | > 40.7 µg/mL
100 | COc1nccc(NCc2ccccc2)c1C#N | 20.1 µg/mL (≈ 84 µM)

Row | SMILES | solubility kinetic
101 | CCOc1ccccc1NC(=O)C(NC(=O)C1CCC(C)CC1)C(C)C (stereo unspecified) | 4.9 µg/mL (≈ 13.6 µM)
102 | C=C(C)c1cccc(C(C)(C)NC(=O)NCc2cccnc2)c1 | > 46.4 µg/mL
103 | c1cncc(-c2nc(-c3ccc4c(c3)OCCO4)cs2)c1 | 4.6 µg/mL (≈ 15.5 µM)
104 | Cc1ccc(N2C(=O)CCC2(C(N)=O)c2ccccc2)cc1 (stereo unspecified) | > 44.2 µg/mL
105 | O=C(CN1C(=O)NC(c2ccccc2)(c2ccccc2)C1=O)NCCNCCO | > 59.5 µg/mL
106 | COc1cccc(-c2onc3ccc(C(=O)/C=C/N(C)C)cc23)c1 | 14.6 µg/mL (≈ 45.3 µM)
107 | COc1cccc2cc(C(C)OC(=O)Nc3ccc(C)cc3)oc12 (stereo unspecified) | < 0.7 µg/mL
108 | Cn1cc(S(=O)(=O)c2ccccc2)n(C)c1=O | 31 µg/mL (≈ 123 µM)
109 | O=C1CN(C(=O)c2ccccc2Cl)c2ccccc2N1 | > 43 µg/mL
110 | COc1cccc(/C=C/C(=O)Nc2cccc(C(C)=O)c2)c1OC | 4.3 µg/mL (≈ 13.2 µM)
111 | CC1CC(NC2=NCCS2)CC(C)(C)C1 (stereo unspecified) | 24.6 µg/mL (≈ 109 µM)
112 | CC(=O)N/C(=N/c1nc(C)cc(C)n1)Nc1cccc(C)c1 | 22.2 µg/mL (≈ 74.7 µM)
113 | Nc1nnc(SCC(=O)NC2CCCC2)s1 | > 38.8 µg/mL
114 | O=C(O)CC1(CC(=O)Nc2ccc(F)c(Cl)c2)CCCCC1 | > 49.2 µg/mL
115 | Cc1nc2ccccc2c(N)c1C(=O)/C=C/c1ccccc1 | > 43.3 µg/mL
116 | COc1ccc(S(=O)(=O)N2CCOCC2)cc1NC(=O)CSc1ncccn1 | 13.8 µg/mL (≈ 32.5 µM)
117 | CCOC(=O)NC(C(Cl)(Cl)Cl)S(=O)(=O)c1ccccc1 (stereo unspecified) | > 54.1 µg/mL
118 | NC(=O)C1CCN(CC(=O)Nc2ccccc2N2CCOCC2)CC1 | > 52 µg/mL
119 | CC(=O)c1cccc(NC(=O)CN2C(=O)NC(C)(C)C2=O)c1 | > 45.5 µg/mL
120 | O=C(O)c1cc(-c2ccco2)nc2cc3ccccc3cc12 | > 43.4 µg/mL
121 | O=C(N/N=C/c1ccoc1)c1ccc(Cl)cc1Cl | > 42.5 µg/mL
